Test results from patent US12643867B2, “Compositions and uses thereof” (University of Virginia Patent Foundation, priority 2017, dated 2026).

What was measured:
Assay type in all cases: cell-based
A549 cells = assay: WST-1 Cell Proliferation Assay; details: ritanserin, ketanserin 5-50 μM; staurosporine 1 μM
Description: (§1) WST-1 Cell Proliferation Assays. Tumor cells were plated in transparent tissue-culture treated 96-well plates at a density of 100,000 cells/mL (A549, H1650) or 200,000 cells/mL (H82) in a volume of 100 μL per well. Cells were treated with dimethyl sulfoxide (DMSO) vehicle or inhibitors dissolved in DMSO at the indicated concentrations (final DMSO concentration of 0.5%). Cells were allowed to grow for indicated times at 37° C. under 5% CO2. Afterwards, equal parts of WST-1 developer reagent and electron mediator solution were mixed and 10 μL of the resulting solution (‘WST-1 reagent’) were added to each well. Plates were shaken in an orbital shaker for 60 s and then returned to the incubator for two hrs. Plates were again shaken followed measurement of absorbance at 450 nm. Data were normalized to DMSO-treated wells and significance values determined with one-way ANOVA.

H1650 cells = assay: WST-1 Cell Proliferation Assay; details: ritanserin, ketanserin 5-50 μM; staurosporine 1 μM
Description: as §1

H82 cells = assay: WST-1 Cell Proliferation Assay; details: ritanserin, ketanserin 5-50 μM; staurosporine 1 μM
Description: as §1

[1] = system: Bone Marrow Derived Macrophages (BMDMs), noncancerous primary cells; assay: WST-1 Cell Proliferation Assay; details: ritanserin highest concentration tested 50 μM; staurosporine 1 μM
[2] = system: recombinant DGK isoforms (total of 10); assay: JWB003 labeling in live cells (in situ); details: live HEK293T cells
Description: (§2) • 1. HEK293T cells were harvested in cold PBS. • a. Cells were transferred to Eppendorf tube. • 2. Cells were lysed via tip sonicator. • 3. Cells were fractionated into membrane and soluble fraction. • a. 100,000×G for 45 minutes at 4 degree. • b. Supernatant was separated from cell pellet. • 4. Dilute proteomes to 1 mg/mL in PBS and aliquot appropriate reaction volume (49 μL for probe only; 48 μL for competition+probe) • 5. Cells were treated with 50× inhibitor. • a. Incubated for 1Hr at 37 degree. • 6. Cells were treated with 50× Probe (JWB003). • a. Incubated for 1Hr at 37 degree. • 7. Add 6 μL of master mix to each alkyne probe-labeled sample. • a. 1 μL of 1.25 mM Rh-N3 • b. 1 μL of fresh 50 mM TCEP • c. 3 μL of 1.7 mM TBTA stock • d. 1 μL of 50 mM CuSO4 • 8. Vortex samples. • 9. Incubate at room temperature for 1 hr • 10. Quench with 17 μL of 4×SDS-PAGE loading buffer+βME and vortex tubes. • 11. Analyze 30 μL samples by SDS-PAGE immediately. [B] Labeling HEK293T Cells to Determine Target Proteins of JWB003 in Live Cells (In Situ) • 1. Complete media was removed from HEK293T cells and replaced with serum free media containing JWB003 at the appropriate final concentration • a. Cells were placed in incubator for appropriate time at 37 degree 5% CO2 • 2. Cells were washed • a. 2× warm PBS • b. 2× cold PBS • c. Harvest cells in cold PBS • 3. Cells were transferred to Eppendorf tube • 4. […]

recombinant hDGKa = target: T1, recombinant hDGKa (Homo sapiens, UniProt P23743); assay: JWB003 labeling in live cells (in situ); details: 25 μM; transfected HEK293T cells
T1 construct: expressed in transfected cells; host or cells: HEK293T
T1 sequence (P23743 whole entry): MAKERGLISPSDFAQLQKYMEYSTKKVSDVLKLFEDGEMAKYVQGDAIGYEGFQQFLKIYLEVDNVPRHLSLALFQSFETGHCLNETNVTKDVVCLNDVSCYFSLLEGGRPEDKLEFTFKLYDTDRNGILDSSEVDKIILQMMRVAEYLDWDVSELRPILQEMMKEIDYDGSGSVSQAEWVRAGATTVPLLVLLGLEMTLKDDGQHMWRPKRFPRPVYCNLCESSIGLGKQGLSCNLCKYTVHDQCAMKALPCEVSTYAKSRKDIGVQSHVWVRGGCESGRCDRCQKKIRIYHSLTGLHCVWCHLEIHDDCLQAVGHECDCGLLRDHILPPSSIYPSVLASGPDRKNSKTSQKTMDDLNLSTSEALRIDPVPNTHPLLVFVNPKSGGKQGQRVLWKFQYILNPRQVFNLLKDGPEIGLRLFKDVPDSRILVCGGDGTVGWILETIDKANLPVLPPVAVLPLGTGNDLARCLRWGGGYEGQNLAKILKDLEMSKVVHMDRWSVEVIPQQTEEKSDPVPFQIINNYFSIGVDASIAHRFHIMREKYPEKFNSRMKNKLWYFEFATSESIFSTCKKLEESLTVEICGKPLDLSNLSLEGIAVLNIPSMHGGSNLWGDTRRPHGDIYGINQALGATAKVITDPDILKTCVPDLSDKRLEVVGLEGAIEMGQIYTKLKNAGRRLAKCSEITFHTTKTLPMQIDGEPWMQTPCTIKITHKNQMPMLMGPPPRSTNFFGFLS
Description: as §2

human PKCa (hPKCa) = target: T2, human PKCa (hPKCa) (Homo sapiens, UniProt P17252); assay: JWB003 labeling of C1 domain protein kinases; details: transfected HEK293T cells
T2 construct: expressed in transfected cells; host or cells: HEK293T
Description: as §2

| time at which probe labeling of hDGKa saturates (recombinant hDGKa) [min] | SMILES | cell viability (WST-1), words (A549 cells) | cell viability (WST-1), words (H1650 cells) | cell viability (WST-1), words (H82 cells) | cell killing of noncancerous primary cells (WST-1), words [1] | labeling of recombinant DGK isoforms [2] | labeling of hPKCa (human PKCa (hPKCa)) |
| --- | --- | --- | --- | --- | --- | --- | --- |
| – | CN[C@@H]1C[C@H]2O[C@@](C)([C@@H]1OC)n1c3ccccc3c3c4c(c5c6ccccc6n2c5c31)C(=O)NC4 [Staurosporine] | general cytotoxicity across all cells tested | general cytotoxicity across all cells tested | general cytotoxicity across all cells tested | general cytotoxicity across all cells tested | – | – |
| 60 | C#CCCC(=O)NCCN1CCN(C/C=C/C(=O)N2CCC(=C(c3ccc(F)cc3)c3ccc(F)cc3)CC2)CC1 [JWB003] | – | – | – | – | effective labeling of all ten proteins in live cells | labeling of hPKCa in the membrane but not soluble fraction |
